Test systems include MDA-MB-231 breast; UO-31 renal; RPMI-8226 leukemia; OVCAR-4 ovarian; SNB-19 CNS; SN12C renal; EKVX NSCLC; SK-OV-3 ovarian.
Holding throughout (assay): DTP human tumour cell line panel, 48 h

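Tested at 5 concentrations; 48 h exposure; 96-well plates; endpoints linearly interpolated, else capped at highest concentration. GI50: concentration for 50% inhibition of growth. At the TGI there is no net growth.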 Some results are limits rather than exact numbers.

As for `CCN(CC)c1ccc2[nH]c3c(C(N)=O)cc(=O)c(=O)c=3oc2c1`, the GI50 in the experiment with MDA-MB-231 breast was 2.9 µM; with UO-31 renal, 1.07 µM; in the experiment with RPMI-8226 leukemia, 0.383 µM; in the experiment on OVCAR-4 ovarian, 2.03 µM; in the experiment on SNB-19 CNS, 2.68 µM; in the experiment on SN12C renal, 2.09 µM. The GI50 in the experiment with EKVX NSCLC was 2.79 µM. The total growth inhibition concentration (TGI) was over 100 µM with MDA-MB-231 breast; 4.12 µM with UO-31 renal; 4.7 µM in the experiment with RPMI-8226 leukemia; 11.5 µM with OVCAR-4 ovarian; 24.5 µM in the experiment on SNB-19 CNS; over 100 µM in the experiment on SN12C renal. This compound also had a TGI with EKVX NSCLC of 15.7 µM.
Regarding `Cc1ccc2c(/C=C/C(=O)c3cc(CN4CCOCC4)c(O)c4nc(C)ccc34)cc(CN3CCOCC3)c(O)c2n1`, the GI50 with MDA-MB-231 breast was 1.44 µM; in the experiment with UO-31 renal, 0.371 µM; in the experiment with RPMI-8226 leukemia, 0.489 µM; in the experiment on OVCAR-4 ovarian, 0.637 µM; in the experiment on SNB-19 CNS it was 0.603 µM; in the experiment on SN12C renal, 0.683 µM. Also, in the experiment on EKVX NSCLC, the GI50 was 2.1 µM. The concentration for total growth inhibition (TGI) worked out at 5.2 µM in the experiment with MDA-MB-231 breast; 1.6 µM in the experiment on UO-31 renal; 3.86 µM in the experiment on RPMI-8226 leukemia; 2.43 µM in the experiment with OVCAR-4 ovarian; 17.6 µM with SNB-19 CNS; 12.4 µM in the experiment with SN12C renal. Also, the TGI with EKVX NSCLC is 13.6 µM.
In the case of `Clc1ccc(Nc2ccnc(NCCNc3ccnc4cc(Cl)ccc34)n2)cc1`, the GI50 with MDA-MB-231 breast is 1.59 µM; with UO-31 renal, 1.21 µM; in the experiment on RPMI-8226 leukemia, 1.38 µM; with OVCAR-4 ovarian, 1.03 µM; in the experiment with SNB-19 CNS, 1.54 µM; with SN12C renal it was 1.51 µM. Further, the GI50 with SK-OV-3 ovarian is 1.44 µM. For the same compound, the TGI with MDA-MB-231 breast turned out to be 3.31 µM; in the experiment with UO-31 renal, 2.6 µM; in the experiment with RPMI-8226 leukemia it was 3.73 µM; with OVCAR-4 ovarian it was 2.31 µM; in the experiment on SNB-19 CNS it was 3.07 µM; with SN12C renal, 3.47 µM. The compound further yielded a TGI with SK-OV-3 ovarian of 2.76 µM.
As to `CCN(Cc1ccc(F)cc1F)c1ccc(CO)c(Cl)c1`, the GI50 was 12.1 µM with MDA-MB-231 breast; 4.52 µM with UO-31 renal; 2.96 µM in the experiment on RPMI-8226 leukemia; 0.218 µM in the experiment with OVCAR-4 ovarian; 19.9 µM with SNB-19 CNS; 11.2 µM with SN12C renal. In the experiment on SK-OV-3 ovarian, the GI50 is 7.65 µM. The TGI with MDA-MB-231 breast amounted to 25.5 µM; with UO-31 renal, 43.8 µM; in the experiment on RPMI-8226 leukemia, 32 µM; in the experiment with OVCAR-4 ovarian it was 1.65 µM; with SNB-19 CNS it was 68.8 µM; in the experiment with SN12C renal, 23.8 µM. The same compound registered a TGI in the experiment on SK-OV-3 ovarian of 22.1 µM.
Regarding `COc1ccc(/C=C/C(=O)/C=C(/C=C/c2ccc(OC)c(OC)c2)OB(F)F)cc1OC`, the GI50 is 0.621 µM in the experiment with MDA-MB-231 breast; 0.652 µM in the experiment with UO-31 renal; 0.427 µM with RPMI-8226 leukemia; 1.86 µM with OVCAR-4 ovarian; 1.63 µM in the experiment with SNB-19 CNS; 1.04 µM with EKVX NSCLC. Further, the GI50 with SK-OV-3 ovarian is 2.98 µM. The TGI in the experiment with MDA-MB-231 breast was 4.08 µM; in the experiment with UO-31 renal, 3.72 µM; with RPMI-8226 leukemia, 2.81 µM; with OVCAR-4 ovarian, over 100 µM; in the experiment with SNB-19 CNS it was 5.73 µM; in the experiment on EKVX NSCLC, over 100 µM. In addition, the TGI in the experiment with SK-OV-3 ovarian was 12.1 µM.
As for `COC(=O)C/C(C)=C/[C@@H](O)[C@H]1O[C@@H]2CC/C(Cl)=C/C/C=C(/C)[C@H](OC(C)=O)CC(=O)O[C@@H]1C2`, the GI50 is 4.07 µM in the experiment on MDA-MB-231 breast; 1.85 µM in the experiment with UO-31 renal; 1.44 µM in the experiment on RPMI-8226 leukemia; 2.28 µM in the experiment with SNB-19 CNS; 1.01 µM in the experiment with SN12C renal; 4.93 µM with EKVX NSCLC. The TGI with MDA-MB-231 breast is 11.8 µM; in the experiment with UO-31 renal, over 25 µM; with RPMI-8226 leukemia it was 7.24 µM; in the experiment on SNB-19 CNS, 12.7 µM; in the experiment with SN12C renal, 7.4 µM; in the experiment on EKVX NSCLC, 14.3 µM.
For the compound `CC1=C(C(=O)Nc2ccc(F)c(Cl)c2)C(c2cccc(O)c2)NC(=S)N1` (configuration not stated), the GI50 with MDA-MB-231 breast was 10.9 µM; in the experiment on UO-31 renal, over 50 µM; in the experiment with RPMI-8226 leukemia it was 30.1 µM; in the experiment with SNB-19 CNS, over 50 µM; in the experiment with SN12C renal, 12.7 µM; in the experiment with EKVX NSCLC it was 17.8 µM. In the experiment with SK-OV-3 ovarian, the GI50 was 16.8 µM. Further, the total growth inhibition concentration (TGI) with MDA-MB-231 breast was 30.2 µM; in the experiment with UO-31 renal, over 50 µM; with RPMI-8226 leukemia, over 50 µM; in the experiment on SNB-19 CNS it was over 50 µM; in the experiment with SN12C renal, 39.2 µM; in the experiment with EKVX NSCLC, over 50 µM. For the same compound, the TGI in the experiment with SK-OV-3 ovarian was over 50 µM.
As to `COc1ccc(/C=C\c2cc(OC)c(OC)c(OC)c2)cc1NC(=O)[C@@H](N)CO`, the GI50 with MDA-MB-231 breast was 0.0215 µM; with UO-31 renal it was 0.0486 µM; in the experiment on RPMI-8226 leukemia, 0.0276 µM; in the experiment with OVCAR-4 ovarian, 0.0355 µM; with SNB-19 CNS, 0.0433 µM; with SN12C renal it was 0.0468 µM. Also, the GI50 in the experiment with SK-OV-3 ovarian is under 0.0124 µM. Also, the TGI was over 100 µM in the experiment with MDA-MB-231 breast; over 69.7 µM in the experiment with UO-31 renal; 20.8 µM in the experiment with RPMI-8226 leukemia; over 100 µM with OVCAR-4 ovarian; over 100 µM in the experiment with SNB-19 CNS; over 100 µM in the experiment on SN12C renal. The compound further yielded a TGI in the experiment with SK-OV-3 ovarian of over 100 µM.
For `Cc1cc(S(=O)(=O)Nc2nnc(-c3ccco3)c(-c3ccco3)n2)c(SCc2ccccc2)cc1Cl`, the GI50 in the experiment on MDA-MB-231 breast was 24.8 µM; with UO-31 renal, 21.7 µM; with RPMI-8226 leukemia, 18.4 µM; in the experiment with OVCAR-4 ovarian it was 22 µM; in the experiment with SNB-19 CNS it was 21.7 µM; in the experiment with EKVX NSCLC it was 17.5 µM. Besides, the TGI in the experiment with MDA-MB-231 breast came out at 47.6 µM; in the experiment on UO-31 renal, 50.4 µM; in the experiment on RPMI-8226 leukemia it was 61.4 µM; with OVCAR-4 ovarian, 41.6 µM; with SNB-19 CNS, 43.8 µM; with EKVX NSCLC, 37.6 µM.
Take `O=C(CCl)Nc1ccccc1SCc1cc(Cl)cc2c1OCOC2`: the GI50 in the experiment on MDA-MB-231 breast is 5.97 µM; in the experiment on UO-31 renal it was 2.95 µM; with RPMI-8226 leukemia, 6.96 µM; in the experiment on OVCAR-4 ovarian, 3.14 µM; in the experiment on SNB-19 CNS, 14.1 µM; in the experiment on SN12C renal, 6.69 µM. The GI50 with SK-OV-3 ovarian is 12.2 µM. Moreover, the TGI in the experiment with MDA-MB-231 breast came to 28 µM; in the experiment on UO-31 renal, 15 µM; with RPMI-8226 leukemia, 40.6 µM; in the experiment with OVCAR-4 ovarian, 12.5 µM; with SNB-19 CNS, 28.9 µM; in the experiment on SN12C renal it was 21 µM. For the same compound, in the experiment with SK-OV-3 ovarian, the TGI amounted to 33.5 µM.
Take `O=C(Nc1cccc(C2=NCCN2)c1)c1ccc(OCCCOc2ccc(C(=O)Nc3cccc(C4=NCCN4)c3)cc2)cc1`: the GI50 in the experiment with UO-31 renal was 13.5 µM; in the experiment on SNB-19 CNS, 2.69 µM; with SK-OV-3 ovarian, 2.39 µM. For the same compound, the TGI is over 100 µM with UO-31 renal, over 100 µM with SNB-19 CNS and 5.41 µM with SK-OV-3 ovarian.

The values above are taken from PubChem BioAssay (NCI).
